# Patent US20220411372A1, “SMALL-MOLECULE INHIBITORS FOR THE B-CATENIN/B-CELL LYMPHOMA 9 PROTEIN-PROTEIN INTERACTION” (H. Lee Moffitt Cancer Center and Research Institute, Inc., priority 2019, published 2022)
# Biological target: T1, β-catenin/BCL9 PPI (Homo sapiens, UniProt P35222)
# T1 construct: Full-length β-catenin (residues 1-781) were cloned into a pET-28b vector; made in house; host or cells: E. coli BL21 DE3 (β-catenin); BCL9 peptide synthesized by InnoPep Inc
# T1 sequence (P35222 1-781): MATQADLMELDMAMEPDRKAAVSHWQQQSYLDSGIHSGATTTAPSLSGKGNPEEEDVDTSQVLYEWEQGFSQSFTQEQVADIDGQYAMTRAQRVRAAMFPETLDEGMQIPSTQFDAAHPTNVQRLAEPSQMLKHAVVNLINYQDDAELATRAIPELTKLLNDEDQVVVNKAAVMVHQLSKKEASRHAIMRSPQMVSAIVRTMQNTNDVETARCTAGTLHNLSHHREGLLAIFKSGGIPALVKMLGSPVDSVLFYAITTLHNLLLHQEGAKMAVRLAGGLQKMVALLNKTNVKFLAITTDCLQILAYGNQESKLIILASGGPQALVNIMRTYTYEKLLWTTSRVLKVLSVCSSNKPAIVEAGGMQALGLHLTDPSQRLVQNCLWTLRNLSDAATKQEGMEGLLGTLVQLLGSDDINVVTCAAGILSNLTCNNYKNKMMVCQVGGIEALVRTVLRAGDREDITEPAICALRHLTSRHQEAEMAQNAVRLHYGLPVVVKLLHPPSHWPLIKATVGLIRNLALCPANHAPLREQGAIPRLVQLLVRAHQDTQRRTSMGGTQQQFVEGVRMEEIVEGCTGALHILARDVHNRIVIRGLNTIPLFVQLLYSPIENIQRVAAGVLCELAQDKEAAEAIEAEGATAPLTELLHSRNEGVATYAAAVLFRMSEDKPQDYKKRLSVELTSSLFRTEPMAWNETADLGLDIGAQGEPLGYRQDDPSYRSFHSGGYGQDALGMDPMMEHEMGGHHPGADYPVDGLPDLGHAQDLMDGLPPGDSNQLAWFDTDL
# Experiment: AlphaScreen competitive inhibition assay of the β-catenin/BCL9 PPI
# Assay type: binding
# Conditions: Table 1, inhibitors 1-14; read-out: Ki
# Description: AlphaScreen Assays of β-Catenin and BCL9 Interaction. Experiments were performed in white opaque 384-well plates from PerkinElmer (Waltham, Mass.), and the samples were read on a Synergy 2 plate reader (Biotek, Winooski, Vt.) with excitation at 680 nm and emission at 570 nm. The standard AlphaScreen protocol was used with a sensitivity setting of 200. All dilutions were made in 1× assay buffer containing 25 mM Hepes (pH 7.4), 100 mM NaCl, 0.01% Triton X-100 and 0.1% BSA to minimize nonspecific interactions.
# For the β-catenin/BCL9 assay, 5 nM biotinylated BCL9 and 40 nM His6-tagged β-catenin were incubated in assay buffer at 4° C. for 30 min. For the β-catenin/E-cadherin assay, 10 nM biotinylated human E-cadherin, and 40 nM His6-tagged human β-catenin were added and incubated in assay buffer at 4° C. for 30 min. Different concentrations of the tested inhibitor were added and incubated in 20 μL assay buffer at 4° C. for another 1 h. All of the assay plates were covered and gently mixed on an orbital shaker. The donor and acceptor beads were then added to the plates to a final concentration of 10 μg/mL in […]. The mixture was incubated for 1 h at 4° C. before detection. The IC50 value was determined by nonlinear least-square analysis of GraphPad Prism 5.0. […] All of the experiments were performed in triplicate and carried out in the presence of 1% DMSO for small-molecule inhibitors. Each compound was assayed at least by two independent experiments. The results were expressed as mean±standard deviation. The inhibitor selectivity for β-catenin/BCL9 over β-catenin/E-canderin interactions was defined as the ratio of the respective Ki value of β-catenin/E-cadherin interactions over that of β-catenin/BCL9 interactions.
row,SMILES,Ki [µM]
1,"CC(C)c1ccc(COC(=O)[C@@H]2CCCN(c3cccc(OC(C)(C)C(=O)O)c3)C2)cc1 [Compound 1, (R)-2-(3-(3-(((4-isopropylbenzyl)oxy)carbonyl)piperidin-1-yl)phenoxy)-2-methylpropanoic acid]",> 90
2,"CC(C)c1ccc(COC(=O)[C@H]2CCCN(c3cccc(OC(C)(C)C(=O)O)c3)C2)cc1 [Compound 2, (S)-2-(3-(3-(((4-isopropylbenzyl)oxy)carbonyl)piperidin-1-yl)phenoxy)-2-methylpropanoic acid]",> 90
3,"CC(C)c1ccc(CNC(=O)[C@@H]2CCCN(c3cccc(OC(C)(C)C(=O)O)c3)C2)cc1 [Compound 3, (R)-2-(3-(3-((4-isopropylbenzyl)carbamoyl)piperidin-1-yl)phenoxy)-2-methylpropanoic acid]",≤ 50
4,"CCN(Cc1ccc(C(C)C)cc1)C(=O)[C@H]1CCCN(c2cccc(OC(C)(C)C(=O)O)c2)C1 [Compound 8, (S)-2-(3-(3-(ethyl(4-isopropylbenzyl)carbamoyl)piperidin-1-yl)phenoxy)-2-methylpropanoic acid]",> 90
5,"CC(C)c1ccc(CN(C(=O)[C@H]2CCCN(c3cccc(OC(C)(C)C(=O)O)c3)C2)C2CC2)cc1 [Compound 12, (S)-2-(3-(3-(cyclopropyl(4-isopropylbenzyl)carbamoyl)piperidin-1-yl)phenoxy)-2-methylpropanoic acid]",> 90
6,"CC(C)c1ccc(CCNC(=O)[C@@H]2CCCN(c3cccc(OC(C)(C)C(=O)O)c3)C2)cc1 [Compound 13, (R)-2-(3-(3-((4-isopropylphenethyl)carbamoyl)piperidin-1-yl)phenoxy)-2-methylpropanoic acid]",≤ 50
7,"CC(C)c1ccc(CCNC(=O)[C@H]2CCCN(c3cccc(OC(C)(C)C(=O)O)c3)C2)cc1 [Compound 14, (S)-2-(3-(3-((4-isopropylphenethyl)carbamoyl)piperidin-1-yl)phenoxy)-2-methylpropanoic acid]",≤ 90

# Continued, values first:
row,Ki [µM],SMILES
1,> 90,"CC(C)c1ccc(CNC(=O)[C@H]2CCCN(c3cccc(OC(C)(C)C(=O)O)c3)C2)cc1 [Compound 4, (S)-2-(3-(3-((4-isopropylbenzyl)carbamoyl)piperidin-1-yl)phenoxy)-2-methylpropanoic acid]"
2,< 50,"CC(C)c1ccc(CN(C)C(=O)[C@@H]2CCCN(c3cccc(OC(C)(C)C(=O)O)c3)C2)cc1 [Compound 5, (R)-2-(3-(3-((4-isopropylbenzyl)(methyl)carbamoyl)piperidin-1-yl)phenoxy)-2-methylpropanoic acid]"
3,> 90,"CCN(Cc1ccc(C(C)C)cc1)C(=O)[C@@H]1CCCN(c2cccc(OC(C)(C)C(=O)O)c2)C1 [Compound 7, (R)-2-(3-(3-(ethyl(4-isopropylbenzyl)carbamoyl)piperidin-1-yl)phenoxy)-2-methylpropanoic acid]"
4,> 90,"CC(C)c1ccc(CN(C(=O)[C@@H]2CCCN(c3cccc(OC(C)(C)C(=O)O)c3)C2)C(C)C)cc1 [Compound 9, (R)-2-(3-(3-(isopropyl(4-isopropylbenzyl)carbamoyl)piperidin-1-yl)phenoxy)-2-methylpropanoic acid]"
5,≤ 50,"CC(C)c1ccc(CN(C(=O)[C@H]2CCCN(c3cccc(OC(C)(C)C(=O)O)c3)C2)C(C)C)cc1 [Compound 10, (S)-2-(3-(3-(isopropyl(4-isopropylbenzyl)carbamoyl)piperidin-1-yl)phenoxy)-2-methylpropanoic acid]"
6,≤ 50,"CC(C)c1ccc(CN(C(=O)[C@@H]2CCCN(c3cccc(OC(C)(C)C(=O)O)c3)C2)C2CC2)cc1 [Compound 11, (R)-2-(3-(3-(cyclopropyl(4-isopropylbenzyl)carbamoyl)piperidin-1-yl)phenoxy)-2-methylpropanoic acid]"

# Same assay, conditions: Table 9, inhibitors 93-98, racemic; read-out: Ki
row,Ki [µM],SMILES
1,≤ 90,"CC(C)c1ccc(CNC(=O)C2CCCN(c3cccc(OC(C)(C)C(=O)O)c3)C2)cc1 (racemic) [Compound 93, 2-(3-(3-((4-isopropylbenzyl)carbamoyl)piperidin-1-yl)phenoxy)-2-methylpropanoic acid]"
2,≤ 90,"CC(C)c1ccc(CN(C)C(=O)C2CCCN(c3cccc(OC(C)(C)C(=O)O)c3)C2)cc1 (racemic) [Compound 95, 2-(3-(3-((4-isopropylbenzyl)(methyl)carbamoyl)piperidin-1-yl)phenoxy)-2-methylpropanoic acid]"
3,≤ 90,"CC(C)c1ccc(CN(C(=O)C2CCCN(c3cccc(OC(C)(C)C(=O)O)c3)C2)C(C)C)cc1 (racemic) [Compound 97, 2-(3-(3-(isopropyl(4-isopropylbenzyl)carbamoyl)piperidin-1-yl)phenoxy)-2-methylpropanoic acid]"

# Same assay, conditions: Table 10, inhibitors 99-106, racemic; read-out: Ki ± SD
row,SMILES,Ki [µM]
1,"CC(C)(Oc1cccc(N2CCCC(C(=O)N(Cc3ccc(-c4ccsc4)cc3)C3CC3)C2)c1)C(=O)O (racemic) [Compound 104, 2-(3-(3-(cyclopropyl(4-(thiophen-3-yl)benzyl)carbamoyl)piperidin-1-yl)phenoxy)-2-methylpropanoic acid]",≤ 30
2,"CC(C)(Oc1cccc(N2CCCC(C(=O)N(Cc3ccc(-c4ccco4)cc3)C3CC3)C2)c1)C(=O)O (racemic) [Compound 105, 2-(3-(3-(cyclopropyl(4-(furan-2-yl)benzyl)carbamoyl)piperidin-1-yl)phenoxy)-2-methylpropanoic acid]",≤ 90
3,"CC(C)(Oc1cccc(N2CCCC(C(=O)N(Cc3ccc(-c4ccoc4)cc3)C3CC3)C2)c1)C(=O)O (racemic) [Compound 106, 2-(3-(3-(cyclopropyl(4-(furan-3-yl)benzyl)carbamoyl)piperidin-1-yl)phenoxy)-2-methylpropanoic acid]",> 90

# The remaining lines, values ahead:
row,Ki [µM],SMILES
1,> 90,"CC(C)(Oc1cccc(N2CCCC(C(=O)N(Cc3ccc(-c4cn[nH]c4)cc3)C3CC3)C2)c1)C(=O)O (racemic) [Compound 99, 2-(3-(3-((4-(1H-pyrazol-4-yl)benzyl)(cyclopropyl)carbamoyl)piperidin-1-yl)phenoxy)-2-methylpropanoic acid]"
2,> 90,"Cn1cc(-c2ccc(CN(C(=O)C3CCCN(c4cccc(OC(C)(C)C(=O)O)c4)C3)C3CC3)cc2)cn1 (racemic) [Compound 100, 2-(3-(3-(cyclopropyl(4-(1-methyl-1H-pyrazol-4-yl)benzyl)carbamoyl)piperidin-1-yl)phenoxy)-2-methylpropanoic acid]"
3,≤ 90,"CC(C)(Oc1cccc(N2CCCC(C(=O)N(Cc3ccc(-c4ccn[nH]4)cc3)C3CC3)C2)c1)C(=O)O (racemic) [Compound 101, 2-(3-(3-((4-(1H-pyrazol-5-yl)benzyl)(cyclopropyl)carbamoyl)piperidin-1-yl)phenoxy)-2-methylpropanoic acid]"
4,> 90,"Cn1nccc1-c1ccc(CN(C(=O)C2CCCN(c3cccc(OC(C)(C)C(=O)O)c3)C2)C2CC2)cc1 (racemic) [Compound 102, 2-(3-(3-(cyclopropyl(4-(1-methyl-1H-pyrazol-5-yl)benzyl)carbamoyl)piperidin-1-yl)phenoxy)-2-methylpropanoic acid]"
5,≤ 30,"CC(C)(Oc1cccc(N2CCCC(C(=O)N(Cc3ccc(-c4cccs4)cc3)C3CC3)C2)c1)C(=O)O (racemic) [Compound 103, 2-(3-(3-(cyclopropyl(4-(thiophen-2-yl)benzyl)carbamoyl)piperidin-1-yl)phenoxy)-2-methylpropanoic acid]"

# Same assay, conditions: Table 11, inhibitors 107-108, racemic; read-out: Ki ± SD
row,Ki [µM],SMILES
1,> 90,"COC(=O)C(C)(C)Oc1cccc(N2CCCC(C(=O)N(Cc3ccc(-c4cccs4)cc3)C3CC3)C2)c1 (racemic) [Compound 107, methyl 2-(3-(3-(cyclopropyl(4-(thiophen-2-yl)benzyl)carbamoyl)piperidin-1-yl)phenoxy)-2-methylpropanoate]"
